Data taken from US11584747B2, “Substituted pyridopyrimidinonyl compounds useful as T cell activators” (BRISTOL-MYERS SQUIBB COMPANY, priority 2019, dated 2023).
Where two headings read alike, the source gives them in different places.

Experiments:
human DGKα [1] = molecular target: T1, human DGKα (Homo sapiens (Human), UniProt P23743); assay: DGKα LIPGLO assay (extruded liposome substrate, ADP-Glo luminescence); format: biochemical; conditions: liposome assay; read-out: DGK alpha LIPGLO IC50
human DGKζ = human DGKζ (Homo sapiens (Human), UniProt Q13574); assay: DGKζ LIPGLO assay (extruded liposome substrate, ADP-Glo luminescence); format: biochemical; conditions: liposome assay; read-out: DGK zeta LIPGLO IC50
whole blood (pERK) = assay: pERK Whole Blood assay (Table A; no whole-blood pERK method described); format: cell-based; conditions: normalized
[2] = system: human venous whole blood (IFN-γ); assay: Human whole blood IFN-γ assay; format: cell-based; conditions: whole blood, normalized to 3 μM reference compound as 100% activation, read-out: IFN-γ Whole Blood Normalized EC50
Description: Human venous whole blood (22.5 μL per well), obtained from healthy donors, was pre-treated with compounds for one hour at 37° C. in a humidified 95% air/5% CO2 incubator. The blood was stimulated with 2.5 μL anti-human CD3 and anti-CD28 mAb at a final concentration of 1 μg/mL each for 24 hours at 37° C. IFN-γ in the supernatants was measured using AlphLISA kit (Cat #AL217).

human DGKα [3] = molecular target: T1, human DGKα; assay: DGKα ADPGLO assay (detergent/lipid micelle substrate); format: biochemical; conditions: truncated DGK alpha; read-out: DGK alpha ADPGLO (Truncated) IC50
Description: DGK Alpha ADPGLO (Truncated) IC50 (uM)
The detergent/lipid micelle was prepared by combining 15 g phosphatidylserine (Avanti 840035P) and 1 g diacylglycerol (8008110) and dissolving into 150 mL chloroform in a 2 L round bottom flask. Chloroform was removed under high vacuum by rotary evaporation. […] The lipid/detergent solution was split into 5 mL aliquots and stored at −80° C.

human DGKζ, sequence (Q13574 other isoform, or with tags, fused parts or gaps): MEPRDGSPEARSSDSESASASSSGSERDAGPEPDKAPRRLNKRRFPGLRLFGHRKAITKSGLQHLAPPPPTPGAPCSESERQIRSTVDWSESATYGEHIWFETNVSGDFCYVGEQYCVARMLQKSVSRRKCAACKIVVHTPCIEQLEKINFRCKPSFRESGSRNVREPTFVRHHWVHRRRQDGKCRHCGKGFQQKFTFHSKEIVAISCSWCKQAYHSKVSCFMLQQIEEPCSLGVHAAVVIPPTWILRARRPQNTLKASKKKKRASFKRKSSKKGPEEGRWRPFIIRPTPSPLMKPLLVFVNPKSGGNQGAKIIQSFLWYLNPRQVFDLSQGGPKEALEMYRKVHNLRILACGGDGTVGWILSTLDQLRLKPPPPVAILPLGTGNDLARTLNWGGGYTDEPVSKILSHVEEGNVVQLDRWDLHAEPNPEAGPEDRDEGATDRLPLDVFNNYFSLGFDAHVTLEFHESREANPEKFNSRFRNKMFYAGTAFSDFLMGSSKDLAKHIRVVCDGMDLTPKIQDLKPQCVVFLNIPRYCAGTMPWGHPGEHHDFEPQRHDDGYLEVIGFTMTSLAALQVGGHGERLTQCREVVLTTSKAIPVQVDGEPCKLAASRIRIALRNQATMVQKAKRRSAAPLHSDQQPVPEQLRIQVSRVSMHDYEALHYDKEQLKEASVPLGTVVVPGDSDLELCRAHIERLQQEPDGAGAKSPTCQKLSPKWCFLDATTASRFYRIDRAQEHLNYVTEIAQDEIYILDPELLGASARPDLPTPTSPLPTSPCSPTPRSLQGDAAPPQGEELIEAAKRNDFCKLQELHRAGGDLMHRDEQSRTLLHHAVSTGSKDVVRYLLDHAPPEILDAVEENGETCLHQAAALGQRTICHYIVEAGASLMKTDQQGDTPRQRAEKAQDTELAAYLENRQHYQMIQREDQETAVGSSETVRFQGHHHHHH
T1 sequence (P23743 whole entry, looked up): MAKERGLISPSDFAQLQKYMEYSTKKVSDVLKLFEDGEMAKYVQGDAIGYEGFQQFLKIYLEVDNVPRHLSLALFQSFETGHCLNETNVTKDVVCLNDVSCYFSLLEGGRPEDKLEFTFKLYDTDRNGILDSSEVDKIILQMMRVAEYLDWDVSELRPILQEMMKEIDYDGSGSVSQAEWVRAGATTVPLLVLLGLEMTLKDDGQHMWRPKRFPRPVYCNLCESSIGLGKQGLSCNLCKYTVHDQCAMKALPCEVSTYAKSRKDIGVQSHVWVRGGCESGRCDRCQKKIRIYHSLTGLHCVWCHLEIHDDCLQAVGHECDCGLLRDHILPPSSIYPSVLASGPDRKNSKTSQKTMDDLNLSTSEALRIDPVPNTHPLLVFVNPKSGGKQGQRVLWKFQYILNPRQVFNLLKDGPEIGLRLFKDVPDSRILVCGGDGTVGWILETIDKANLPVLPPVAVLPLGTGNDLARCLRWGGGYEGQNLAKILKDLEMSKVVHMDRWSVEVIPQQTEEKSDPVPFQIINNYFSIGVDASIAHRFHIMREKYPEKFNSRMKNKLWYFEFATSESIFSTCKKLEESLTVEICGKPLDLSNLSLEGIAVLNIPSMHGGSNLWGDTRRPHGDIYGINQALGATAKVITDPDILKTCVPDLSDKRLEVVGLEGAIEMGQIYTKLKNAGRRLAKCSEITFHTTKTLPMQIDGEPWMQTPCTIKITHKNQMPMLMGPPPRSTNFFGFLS

SMILES | IC50 (human DGKα [1]) | IC50 (human DGKζ) | IC50 (whole blood (pERK)) | EC50 [2] | EC50 ([2]; Homo sapiens) | IC50 (human DGKα [3])
CC[C@H]1CN(C(C)c2ccc(OCC3CC3)cc2)[C@H](CC)CN1c1nc(=O)n(C)c2ccc(C#N)nc12 (single isomer, unassigned) [Example 23] | 58 nM | 29 nM | 86 nM | 11 nM | – | –
CC(c1ccc(Cl)cc1F)N1C[C@H](C)N(c2nc(=O)n(C)c3ccc(C#N)nc23)C[C@H]1C (single isomer, unassigned) [Example 147] | 1460 nM | 1130 nM | 1000 nM | – | – | –
CC[C@H]1CN(C(C)c2ccc(OC(F)(F)F)cc2F)[C@H](CC)CN1c1nc(=O)n(C)c2ccc(C#N)nc12 (single isomer, unassigned) [Example 38] | 66 nM | 120 nM | 220 nM | 72 nM | – | –
CC[C@@H]1CN(c2nc(=O)n(C)c3ccc(C#N)nc23)[C@@H](C)CN1C(c1ccc(F)cc1)c1nc(C2CC2)cs1 (single isomer, unassigned) [Example 51] | 37 nM | 27 nM | 9 nM | – | 6 nM | –
CC[C@H]1CN(C(C)c2ccc(OC(F)(F)F)c(F)c2)[C@H](CC)CN1c1nc(=O)n(C)c2ccc(C#N)nc12 (single isomer, unassigned) [Example 30] | 76 nM | 4 nM | 59 nM | 23 nM | – | –
CC[C@H]1CN(C(C)c2ccc(C3CC3)cc2)[C@H](CC)CN1c1nc(=O)n(C)c2ccc(C#N)nc12 (single isomer, unassigned) [Example 29] | 40 nM | 10 nM | 100 nM | 27 nM | – | –
CC[C@H]1CN(C(C)c2cccc(OC)n2)[C@H](CC)CN1c1nc(=O)n(C)c2ccc(C#N)nc12 (stereo partly drawn) [Example 215, 4-((2S,5R)-2,5-diethyl-4-(1-(6-methoxypyridin-2-yl)ethyl)piperazin-1-yl)-1-methyl-2-oxo-1,2-dihydropyrido[3,2-d]pyrimidine-6-carbonitrile] | – | 110 nM | 20000 nM | 170 nM | – | 77 nM
CC[C@H]1CN(C(C)c2cccc(OC(F)F)n2)[C@H](CC)CN1c1nc(=O)n(C)c2ccc(C#N)nc12 (stereo partly drawn) [Example 240, 4-((2S,5R)-4-(1-(6-(difluoromethoxy)pyridin-2-yl)ethyl)-2,5-diethylpiperazin-1-yl)-1-methyl-2-oxo-1,2-dihydropyrido[3,2-d]pyrimidine-6-carbonitrile] | – | 110 nM | 290 nM | 270 nM | – | 73 nM
CC[C@H]1CN(C(C)c2ccc(OC(C)(C)COC)cc2)[C@H](CC)CN1c1nc(=O)n(C)c2ccc(C#N)nc12 (stereo partly shown) [Example 188] | – | 310 nM | 270 nM | 73 nM | – | 14 nM
CC[C@H]1CN(C(C)c2ccc(CN3CCN(C(C)=O)CC3)cc2)[C@H](CC)CN1c1nc(=O)n(C)c2ccc(C#N)nc12 (stereo partly drawn) [Example 283, 4-((2S,5R)-4-(1-(4-((4-acetylpiperazin-1-yl)methyl)phenyl)ethyl)-2,5-diethylpiperazin-1-yl)-1-methyl-2-oxo-1,2-dihydropyrido[3,2-d]pyrimidine-6-carbonitrile] | – | 2430 nM | 6260 nM | 1250 nM | – | 200 nM
C[C@@H]1CN(c2nc(=O)n(C)c3ccc(C#N)nc23)[C@@H](C)CN1C(c1ccc(F)cc1)c1ccon1 (single isomer, unassigned) [Example 163] | 38 nM | 460 nM | 490 nM | 250 nM | – | –
CC[C@@H]1CN(c2nc(=O)n(C)c3ccc(C#N)nc23)[C@@H](C)CN1C(c1ccc(OC(F)(F)F)cc1)c1ccccn1 (single isomer, unassigned) [Example 93] | – | 520 nM | 670 nM | 170 nM | – | 18 nM
CC(c1ccc(OC(F)(F)F)c(F)c1)N1C[C@H](C)N(c2nc(=O)n(C)c3ccc(C#N)nc23)C[C@H]1C (single isomer, unassigned) [Example 160] | 110 nM | 250 nM | 860 nM | 240 nM | – | –
CC[C@H]1CN(C(c2ccc(F)cc2)c2ccc(C(F)(F)F)cn2)[C@H](CC)CN1c1nc(=O)n(C)c2ccc(C#N)nc12 (single isomer, unassigned) [Example 2] | 32 nM | 47 nM | 150 nM | 76 nM | – | –
CC(c1ccc(OC(F)(F)F)cc1F)N1C[C@H](C)N(c2nc(=O)n(C)c3ccc(C#N)nc23)C[C@H]1C (single isomer, unassigned) [Example 143] | 1330 nM | 2120 nM | 1140 nM | – | – | –
CC(c1ccc(C(F)(F)F)cc1F)N1C[C@H](C)N(c2nc(=O)n(C)c3ccc(C#N)nc23)C[C@H]1C (single isomer, unassigned) [Example 151] | 3460 nM | 830 nM | 1870 nM | – | – | –
CCC(c1ccc(C)cc1)N1C[C@H](CC)N(c2nc(=O)n(C)c3ccc(C#N)nc23)C[C@H]1CC (stereo partly drawn) [Example 236, 4-((2S,5R)-2,5-diethyl-4-(1-(p-tolyl)propyl)piperazin-1-yl)-1-methyl-2-oxo-1,2-dihydropyrido[3,2-d]pyrimidine-6-carbonitrile] | – | 58 nM | 44 nM | 12 nM | – | 9 nM
CC[C@H]1CN(C(C)c2ccc(CN3CCC[C@@H](O)C3)cc2)[C@H](CC)CN1c1nc(=O)n(C)c2ccc(C#N)nc12 (stereo partly drawn) [Example 289, 4-((2S,5R)-2,5-diethyl-4-(1-(4-(((R)-3-hydroxypiperidin-1-yl)methyl)phenyl)ethyl)piperazin-1-yl)-1-methyl-2-oxo-1,2-dihydropyrido[3,2-d]pyrimidine-6-carbonitrile] | – | 8640 nM | 350 nM | – | 5720 nM | 2700 nM
CC[C@H]1CN(C(C)c2cccc(OC(F)F)n2)[C@H](CC)CN1c1nc(=O)n(C)c2ccc(C#N)nc12 (stereo partly drawn) [Example 241, 4-((2S,5R)-4-(1-(6-(difluoromethoxy)pyridin-2-yl)ethyl)-2,5-diethylpiperazin-1-yl)-1-methyl-2-oxo-1,2-dihydropyrido[3,2-d]pyrimidine-6-carbonitrile] | – | 920 nM | 190 nM | 2420 nM | – | 460 nM
CCC(c1ccc(OC(F)F)cc1F)N1C[C@H](CC)N(c2nc(=O)n(C)c3ccc(C#N)nc23)C[C@H]1CC (stereo partly drawn) [Example 232, 4-((2S,5R)-4-(1-(4-(difluoromethoxy)-2-fluorophenyl)propyl)-2,5-diethylpiperazin-1-yl)-1-methyl-2-oxo-1,2-dihydropyrido[3,2-d]pyrimidine-6-carbonitrile] | – | 13 nM | 44 nM | 44 nM | – | 2 nM
CCC(c1ccc(CN2CCOCC2)cc1)N1C[C@H](CC)N(c2nc(=O)n(C)c3ccc(C#N)nc23)C[C@H]1CC (stereo partly drawn) [Example 267, 4-((2S,5R)-2,5-diethyl-4-(1-(4-(morpholinomethyl)phenyl)propyl)piperazin-1-yl)-1-methyl-2-oxo-1,2-dihydropyrido[3,2-d]pyrimidine-6-carbonitrile] | – | 100 nM | 1020 nM | 45 nM | – | 41 nM
CC[C@H]1CN(C(C)c2cnc(N3CCOCC3)nc2)[C@H](CC)CN1c1nc(=O)n(C)c2ccc(C#N)nc12 (stereo partly drawn) [Example 206, 4-((2S,5R)-2,5-diethyl-4-(1-(2-morpholinopyrimidin-5-yl)ethyl)piperazin-1-yl)-1-methyl-2-oxo-1,2-dihydropyrido[3,2-d] pyrimidine-6-carbonitrile] | – | 51000 nM | 80 nM | 20000 nM | – | 3980 nM
CC[C@H]1CN(C(C)c2cccc(OC)n2)[C@H](CC)CN1c1nc(=O)n(C)c2ccc(C#N)nc12 (stereo partly drawn) [Example 214, 4-((2S,5R)-2,5-diethyl-4-(1-(6-methoxypyridin-2-yl)ethyl)piperazin-1-yl)-1-methyl-2-oxo-1,2-dihydropyrido[3,2-d]pyrimidine-6-carbonitrile] | – | 6620 nM | 66 nM | 20000 nM | – | 2010 nM
CC(c1ccc(F)cc1F)N1C[C@H](C)N(c2nc(=O)n(C)c3ccc(C#N)nc23)C[C@H]1C (single isomer, unassigned) [Example 144] | 28 nM | 46 nM | 65 nM | – | – | –
CCC(c1ccc(OCC2CC2)cc1F)N1C[C@H](CC)N(c2nc(=O)n(C)c3ccc(C#N)nc23)C[C@H]1CC (stereo partly drawn) [Example 199, 4-((2S,5R)-4-(1-(4-(cyclopropylmethoxy)-2-fluorophenyl)propyl)-2,5-diethylpiperazin-1-yl)-1-methyl-2-oxo-1,2-dihydropyrido[3,2-d]pyrimidine-6-carbonitrile] | – | 920 nM | 11300 nM | 2060 nM | – | 630 nM
CC[C@H]1CN(C(C)c2cccc(OC(F)(F)F)n2)[C@H](CC)CN1c1nc(=O)n(C)c2ccc(C#N)nc12 (stereo partly drawn) [Example 245, 4-((2S,5R)-2,5-diethyl-4-(1-(6-(trifluoromethoxy)pyridin-2-yl)ethyl)piperazin-1-yl)-1-methyl-2-oxo-1,2-dihydropyrido[3,2-d]pyrimidine-6-carbonitrile] | – | 290 nM | 410 nM | – | 220 nM | 18 nM
